One compound from US5354748A, “Oral antibacterial compositions and method for the improvement of gastrointestinal absorption of penem or carbapenem antibiotics” (Suntory Limited, priority 1991, dated 1994) can be followed below.

Where two headings read alike, the source gives them in different places.

A short description of the series: Plasma concentration and urinary excretion of penem in dogs, capsules with glutathione (Example 7). The class given is in vivo. The note with it: dog; for AUC at 4 h / Cmax: plasma; for AUC at 4 h / Cmax / dose excreted at 24 h: po, 75 mg, oral capsule 75 mg (titer); for dose excreted at 24 h: urine, read-out: Excretion into urine.

As to `C[C@@H](O)[C@H]1C(=O)N2C(C(=O)O)=C([C@H]3CCCO3)S[C@H]12` [sodium (1'R,2"R,5R,6S)-6-(1'-hydroxyethyl)-2-(2"-tetrahydrofuranyl)penem-3-carboxylate 2.5 hydrate], the “Increase of AUC relative to single administration” value (oral, glutathione 1/110 of the penemcarboxylate) is reported as 1.2 times. Besides, the AUC (usually the area under the concentration-time curve, a measure of exposure) at 4 h (penem:glutathione molar ratio 11:1) was 25400 ng·h/mL and the AUC at 4 h (penem:glutathione molar ratio 110:1) was found to be 21900 ng·h/mL. For the same compound, the Cmax was determined as 18000 ng/mL (penem:glutathione molar ratio 11:1, read-out: Highest concentration in plasma) and 14700 ng/mL (penem:glutathione molar ratio 110:1, read-out: Highest concentration in plasma). The dose excreted at 24 h is, setting by setting: (penem:glutathione molar ratio 11:1, up to 24 hours) 20.7%; (penem:glutathione molar ratio 110:1, up to 24 hours) 19.9%.
